# In patent US9023789B2, “Amylin analogs and pharmaceutical compositions thereof” (Novo Nordisk A/S, priority 2012, dated 2015):
# pEC50, pIC50: −log10 of the molar value. Numbered stars: 1 amine (or outer) side, 2 acyl side, 3 side chain; on linkers, the order of the positions; unused ones are H or OH. Bridge positions count the residues as written; N and C are the ends. Side chains are listed from the residue outwards. Peptide text beside a SMILES is read from it. * marks the point of attachment. C20 diacid = O=C(O)CCCCCCCCCCCCCCCCCCC(=O)*; γGlu = O=C(O)[C@H](CCC(=O)[*:2])N[*:1]
# Columns and labels:
# [1] = molecular target: T1, human calcitonin receptor (Homo sapiens, UniProt P30988); assay: ASSAY (VII) binding to the human calcitonin receptor (SPA, 125I-Calcitonin); settings: read-out: hCTR bind IC50;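 note: cell membranes (35 ng/µL) combined with SPA beads in 40 µL of pH 7.4 Hepes buffer, 384-well format, signal counted on a TopCounter instrument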
# T1 construct: expressed in transfected cells
# T1 sequence (P30988 25-474): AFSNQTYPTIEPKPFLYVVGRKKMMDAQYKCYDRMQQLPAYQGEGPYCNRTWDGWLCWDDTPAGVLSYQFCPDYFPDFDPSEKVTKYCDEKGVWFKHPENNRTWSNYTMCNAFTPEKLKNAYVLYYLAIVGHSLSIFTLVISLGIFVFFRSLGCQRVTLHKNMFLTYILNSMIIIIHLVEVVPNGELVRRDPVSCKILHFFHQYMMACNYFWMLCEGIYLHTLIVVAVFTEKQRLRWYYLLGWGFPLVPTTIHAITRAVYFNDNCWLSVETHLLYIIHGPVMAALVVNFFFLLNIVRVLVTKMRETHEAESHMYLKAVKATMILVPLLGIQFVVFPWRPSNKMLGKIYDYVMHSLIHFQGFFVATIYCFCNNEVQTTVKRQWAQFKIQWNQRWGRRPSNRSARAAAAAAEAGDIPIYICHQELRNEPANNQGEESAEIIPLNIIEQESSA
# [2] = molecular target: T2, human amylin 3(a) receptor (human calcitonin receptor + RAMP-3) in BHK570 cells (Homo sapiens, UniProt O60896+P30988); assay: ASSAY (II)a functional assay, human amylin receptor (CRE luciferase); assay type: cell-based
# T2 construct: expressed in transfected cells
# In short: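 BHK CRE-luc cells, calcitonin (a) receptor ± RAMP-3 (amylin 3(a)); overnight seeding, 37° C/5% CO2. 3 h ligand exposure, DMEM/10% FBS/10 mM Hepes pH 7.4. LucLite 30 min RT; luminescence (SPC).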
# [3] = molecular target: T3, human amylin receptor (membranes from Amylin 3(a)/CRE-luc cells) (Homo sapiens, UniProt O60896+P30988); assay: ASSAY (V) binding to the human amylin receptor (SPA, 125I-rat amylin);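 note: competition binding of cell membranes (35 ng/µL) mixed with SPA beads in 384-well plates at 40 µL total volume, read by scintillation counting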
# T3 construct: expressed in transfected cells
# T3 sequence (P30988 25-474): T1 sequence (P30988 25-474)
# T3 sequence (O60896 24-148 partner): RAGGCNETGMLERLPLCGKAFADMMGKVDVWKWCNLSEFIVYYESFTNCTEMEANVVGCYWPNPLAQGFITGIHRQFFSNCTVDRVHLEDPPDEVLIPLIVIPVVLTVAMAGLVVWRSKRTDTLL
# [4] = ASSAY (III) ThT fibrillation assay for physical stability; assay type: physicochemical
# Source text: Assay (III)—ThT Fibrillation Assays for the Assessment of Physical Stability of Protein Formulations Low physical stability of a polypeptide may lead to amyloid fibril formation, which is observed as well-ordered, thread-like macromolecular structures in the sample eventually resulting in gel formation. This has traditionally been measured by visual inspection of the sample. However, that kind of measurement is very subjective and depending on the observer. Therefore, the application of a small molecule indicator probe is much more advantageous. Thioflavin T (ThT) is such a probe and has a distinct fluorescence signature when binding to fibrils [Naiki et al. (1989) Anal. […] LeVine (1999) Methods. Enzymol. […], 274-284]. The time course for fibril formation can be described by a sigmoidal curve with the following expression [Nielsen et al. (2001) Biochemistry 40, 6036-6046]; […] Here, F is the ThT fluorescence at the time t. The constant t0 is the time needed to reach 50% of maximum fluorescence. […] Few of those intermediates nucleate to form a template onto which further intermediates may assembly and the fibrillation proceeds. The lag-time corresponds to the interval in which the critical mass of nucleus is built up and the apparent rate constant is the rate with which the fibril itself is formed. Sample Preparation Samples were prepared freshly before each assay. Each sample composition is described in each example. The pH of the sample was adjusted to the desired value using appropriate amounts of concentrated NaOH and HClO4 or HCl. Thioflavin T was added to the samples from a stock solution in H2O to a final concentration of 1 μM. Sample aliquots of 200 μl were placed in a 96 well microtiter plate (Packard OptiPlate™96, white polystyrene). Usually, four or eight replica of each sample (corresponding to one test condition) were placed in one column of wells. The plate was sealed with Scotch Pad (Qiagen). Incubation and Fluorescence Measurement Incubation at given temperature, shaking and measurement of the ThT fluorescence emission were done in a Fluoroskan Ascent FL fluorescence platereader or Varioskan platereader (Thermo Labsystems). The temperature was adjusted to 37° C. The orbital shaking was adjusted to 960 rpm with an amplitude of 1 mm in all the presented data. Fluorescence measurement was done using excitation through a 444 nm filter and measurement of emission through a 485 nm filter. Each run was initiated by incubating the plate at the assay temperature for 10 min. The plate was measured every 20 minutes for a desired period of time. Between each measurement, the plate was shaken and heated as described. Data Handling The measurement points were saved in Microsoft Excel format for further processing and curve drawing and fitting was performed using GraphPad Prism. The background emission from ThT in the absence of fibrils was negligible. The data points are typically a mean of four or eight samples and shown with standard deviation error bars. Only data obtained in the same experiment (i.e. samples on the same plate) are presented in the same graph ensuring a relative measure of fibrillation between experiments. The data set may be fitted to Eq. […] However, since full sigmodial curves in this case are not always achieved during the measurement time, the degree of fibrillation is expressed as ThT fluorescence tabulated as the mean of the samples and shown with the standard deviation at various time points. Measurement of Initial and Final Concentrations The polypeptide concentration in each of the tested formulations were measured both before application in the ThT fibrillation assay (“Initial”) and after completion of the ThT fibrillation (“After ThT assay”). Concentrations were determined by reverse HPLC methods using a pramlintide standard as a reference. Before measurement after completion 150 μl was collected from each of the replica and transferred to an Eppendorf tube. These were centrifuged at 30000 G for 40 mins. […]
# [5] = molecular target: T4, human calcitonin (a) receptor in BHK570 cells (Homo sapiens, UniProt P30988); assay: ASSAY (II)a functional assay, human calcitonin receptor (CRE luciferase); assay type: cell-based; settings: read-out: hCTR funct. EC50
# T4 construct: expressed in transfected cells
# T4 sequence (P30988 25-474): T1 sequence (P30988 25-474)
# Source text: 1. Luciferase Assay Outline
# Activation of calcitonin and amylin (coexpression of calcitonin receptor and receptor activity modifying proteins (RAMP)) receptors lead to increased intracellular concentrations of cAMP. Consequently, transcription is activated by promoters containing multiple copies of the cAMP response element (CRE). It is thus possible to measure amylin activity by the use of a CRE luciferase reporter gene introduced into BHK cells also expressing calcitonin or amylin receptors.
# 2. Construction of Calcitonin (a)- and Amylin 3(a)-Receptor/CRE-Luc Cell Line.
# The cell line was further transfected with RAMP-3, using standard methods. This turns the calcitonin receptor into an amylin 3(a) receptor. Methotrexate, Neomycin, and Hygromycin are selection markers for luciferase, the calcitonin receptor, and RAMP-3, respectively.
# To perform activity assays, BHK calcitonin (a) receptor- or amylin 3(a)-receptor/CRE-luc cells were seeded in white 96 well culture plates at a density of about 20.000 cells/well. […] After incubation overnight at 37° C. and 5% CO2, the growth medium was replaced by 50 μl/well assay medium (DMEM (without phenol red), Glutamax™, 10% FBS, and 10 mM Hepes, pH 7.4). Further, 50 μl/well of standard or sample in assay buffer were added. After 3 hours incubation at 37° C. and 5% CO2, the assay medium with standard or sample were removed and replaced by 100 μl/well PBS. Further, 100 μl/well LucLite™ was added. The plates were sealed and incubated at room temperature for 30 minutes. Finally, luminescence was measured on a TopCounter (Packard) in SPC (single photon counting) mode.
structure (smiles),measurement,setting,value
CC[C@H](C)[C@H](NC(=O)[C@H](C)NC(=O)CNC(=O)[C@H](Cc1ccccc1)NC(=O)[C@H](CC(N)=O)NC(=O)[C@@H]1CCCN1C(=O)[C@H](CO)NC(=O)[C@H](CO)NC(=O)[C@H](Cc1c[nH]cn1)NC(=O)[C@H](CCCNC(=N)N)NC(=O)[C@H](CC(C)C)NC(=O)[C@H](Cc1ccccc1)NC(=O)[C@H](CCC(=O)O)NC(=O)[C@H](C)NC(=O)[C@H](CC(C)C)NC(=O)[C@H](CCCNC(=N)N)NC(=O)[C@H](CCC(N)=O)NC(=O)[C@@H](NC(=O)[C@H](C)NC(=O)[C@@H]1CSSC[C@H](NC(=O)[C@@H](N)CCCCNC(=O)CC[C@H](NC(=O)CC[C@H](NC(=O)CCCCCCCCCCCCCCCCCCC(=O)O)C(=O)O)C(=O)O)C(=O)N[C@@H](CC(N)=O)C(=O)N[C@@H]([C@@H](C)O)C(=O)N[C@@H](C)C(=O)N[C@@H]([C@@H](C)O)C(=O)N1)[C@@H](C)O)C(=O)N1CCC[C@H]1C(=O)N[C@@H](CO)C(=O)N[C@@H](CO)C(=O)N[C@H](C(=O)N[C@@H](CC(N)=O)C(=O)N[C@H](C(=O)NCC(=O)N[C@@H](CO)C(=O)N[C@@H](CC(N)=O)C(=O)N[C@H](C(=O)N1CCC[C@H]1C(N)=O)[C@@H](C)O)C(C)C)[C@@H](C)O [Example 13] (H-K([γGlu-γGlu-C20 diacid])CNTATCATQRLAEFLRHSSPNFGAIPSSTNVGSNTP-NH2; disulfide 2-7; N-terminus assumed),pIC50,[1],9.52
same,Ratio hCT/hAmylin funct.,[2]; hCTR funct. EC50 / hAmylin-R funct. EC50,2.2
same,Ratio hCT/hAmylin funct.,[2]; hCTR funct. EC50 divided by hAmylin-R funct. EC50,2.2
same,Ratio hCT/hAmylin funct.,[2]; hCTR funct. EC50 over hAmylin-R funct. EC50,2.2
same,pEC50,"[2]; human amylin receptor functional potency, assay (II), read-out: hAmylin-R funct. EC50",9.67
same,Ratio hCT/hAmylin funct.,[2]; human functional selectivity: hCTR funct. EC50 / hAmylin-R funct. EC50,2.2
same,pIC50,"[3]; Table 4, read-out: hAmylin-R bind IC50",9.58
same,Ratio hCT/hAmylin binding,"[3]; Table 5, selectivity, hCTR bind IC50 / hAmylin-R bind IC50",1.2
same,Ratio hCT/hAmylin binding,"[3]; Table 7, human binding selectivity, included for comparison",1.2
same,ThT pH 4.0 lag time (h),[4],45 h
same,pEC50,[5],9.33
